The results in this text go back to BindingDB's records for doi:10.1016/j.bmcl.2004.11.051 (Merck Frosst Centre For Therapeutic Research, 2005).

Structures are written as SMILES.

The target of assay [1] is Prostaglandin E2 receptor EP2 subtype (Homo sapiens, UniProt P43116). In words: Binding affinity for human prostanoid EP2 receptor.
Assay [2] has as its target T1, Prostaglandin E2 receptor EP3 subtype (Homo sapiens, UniProt P43115).
T1 sequence (P43115 whole entry): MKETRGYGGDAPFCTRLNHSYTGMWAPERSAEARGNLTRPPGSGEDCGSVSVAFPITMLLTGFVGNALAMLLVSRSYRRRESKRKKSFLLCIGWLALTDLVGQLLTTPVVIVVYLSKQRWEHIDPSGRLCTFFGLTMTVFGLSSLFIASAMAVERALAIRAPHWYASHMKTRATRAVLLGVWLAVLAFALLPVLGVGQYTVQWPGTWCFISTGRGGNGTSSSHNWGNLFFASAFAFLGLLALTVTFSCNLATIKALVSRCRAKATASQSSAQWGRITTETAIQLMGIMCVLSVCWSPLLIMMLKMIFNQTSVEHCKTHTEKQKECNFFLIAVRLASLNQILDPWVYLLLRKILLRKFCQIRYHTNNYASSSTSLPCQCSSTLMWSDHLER
Briefly: Binding affinity for human prostanoid EP3 receptor.

Assay [3] addresses Prostaglandin E2 receptor EP4 subtype (Homo sapiens, UniProt P35408). In words: Binding affinity for human prostanoid EP4 receptor.

Sequence of Prostaglandin E2 receptor EP4 subtype (P35408 whole entry): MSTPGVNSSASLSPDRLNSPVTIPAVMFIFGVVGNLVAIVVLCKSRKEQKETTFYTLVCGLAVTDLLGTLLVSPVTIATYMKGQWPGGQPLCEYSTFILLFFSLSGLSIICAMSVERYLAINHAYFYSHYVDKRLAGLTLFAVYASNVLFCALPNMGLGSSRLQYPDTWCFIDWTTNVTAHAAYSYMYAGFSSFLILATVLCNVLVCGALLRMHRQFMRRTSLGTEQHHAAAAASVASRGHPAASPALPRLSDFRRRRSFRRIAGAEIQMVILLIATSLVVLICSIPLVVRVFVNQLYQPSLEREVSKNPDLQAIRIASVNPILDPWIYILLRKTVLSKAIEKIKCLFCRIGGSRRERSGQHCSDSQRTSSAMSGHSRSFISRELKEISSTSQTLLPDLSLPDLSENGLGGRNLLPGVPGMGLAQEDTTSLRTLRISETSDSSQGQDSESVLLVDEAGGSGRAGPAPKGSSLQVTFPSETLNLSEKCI
Sequence of Prostaglandin E2 receptor EP2 subtype (P43116 whole entry): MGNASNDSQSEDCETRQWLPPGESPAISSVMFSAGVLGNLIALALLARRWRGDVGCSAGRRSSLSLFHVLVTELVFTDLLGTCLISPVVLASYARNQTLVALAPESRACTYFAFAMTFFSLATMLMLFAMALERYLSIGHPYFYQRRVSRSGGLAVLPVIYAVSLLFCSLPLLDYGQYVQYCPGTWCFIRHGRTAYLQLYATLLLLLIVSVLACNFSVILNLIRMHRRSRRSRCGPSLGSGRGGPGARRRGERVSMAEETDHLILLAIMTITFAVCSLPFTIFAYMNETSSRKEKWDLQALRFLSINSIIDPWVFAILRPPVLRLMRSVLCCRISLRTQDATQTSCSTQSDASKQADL

One may read the Ki as the equilibrium dissociation constant of an inhibitor or competing ligand from its target. As to `Cc1cccc(C/C=C/c2ccccc2/C=C/C(=O)O)c1OCc1ccccc1`, the Ki in assay [1] is 860 nM; in assay [2], 9 nM; in assay [3], 2000 nM.
